Experimental data published in PubChem BioAssay AID330 (DTP/NCI, 2004).
Values joined by “and” are separate entries in the source; they are usually repeats but may differ in a detail not shown here. Equal entries are not always repeated. Inconclusive results and toxic doses are left out.

System: P388 leukemia ip, CD2F1 mice, survival T/C
Test: NCI In Vivo Anticancer Drug Screen. Data for tumor model P388 Leukemia (intraperitoneal) in CD2F1 (CDF1) mice
Conditions: endpoint: median survival time, higher = longer survival
How it was run: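 Mice carrying the transplanted tumor received test compound or vehicle. Survival was recorded in each group, and the value is the treated-group measurement divided by that of the vehicle-treated control group.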

[1] = dose: 60.0 mg/kg/injection, schedule: Q01DX005 (ip), vehicle: saline with Tween-80
[2] = dose: 120.0 mg/kg/injection, schedule: Q01DX005 (ip), vehicle: saline with Tween-80
[3] = dose: 240.0 mg/kg/injection, schedule: Q01DX005 (ip), vehicle: saline with Tween-80
[4] = dose: 50.0 mg/kg/injection, schedule: Q01DX005 (ip), vehicle: saline with Tween-80
[5] = dose: 100.0 mg/kg/injection, schedule: Q01DX005 (ip), vehicle: saline with Tween-80
[6] = dose: 200.0 mg/kg/injection, schedule: Q01DX005 (ip), vehicle: saline with Tween-80
[7] = dose: 60.0 mg/kg/injection, schedule: Q01DX005 (ip), vehicle: Klucel (hydroxypropylcellulose) (HPC)
[8] = dose: 120.0 mg/kg/injection, schedule: Q01DX005 (ip), vehicle: Klucel (hydroxypropylcellulose) (HPC)
[9] = dose: 100.0 mg/kg/injection, schedule: Q04DX003 (ip), vehicle: Klucel (hydroxypropylcellulose) (HPC)
[10] = dose: 25.0 mg/kg/injection, schedule: Q01DX005 (ip), vehicle: saline
[11] = dose: 50.0 mg/kg/injection, schedule: Q01DX005 (ip), vehicle: saline
[12] = dose: 240.0 mg/kg/injection, schedule: Q01DX005 (ip), vehicle: Klucel (hydroxypropylcellulose) (HPC)

For `O=C(O)c1cccc(Cl)c1` (tested in a mixture with another compound), the T/C (dose: 100.0 mg/kg/injection, schedule: Q01DX001 (ip), vehicle: saline with Tween-80) was 94 % of control, the T/C (dose: 200.0 mg/kg/injection, schedule: Q01DX001 (ip), vehicle: saline with Tween-80) was 99 % of control and the T/C (dose: 400.0 mg/kg/injection, schedule: Q01DX001 (ip), vehicle: saline with Tween-80) was 95 % of control.
`Cc1nnc(N/N=C/c2ccc([N+](=O)[O-])o2)[nH]c1=O` was tested, and the T/C (dose: 6.25 mg/kg/injection, schedule: Q01DX005 (ip), vehicle: saline with Tween-80) was 101 % of control and 114 % of control and the T/C (dose: 12.5 mg/kg/injection, schedule: Q01DX005 (ip), vehicle: saline with Tween-80) was 115 % of control and 118 % of control (2×).
In the case of `O=C1C2=C(OCCO2)C(=O)C2=C1OCO2`, the T/C [1] is reported as 109 % of control, the T/C [2] is reported as 107 % of control and the T/C [3] is reported as 88 % of control.
For `CN(C)c1ccc(NC(=O)c2ccccc2O)cc1`, the T/C (dose: 50.0 mg/kg/injection, schedule: Q01DX009 (ip), vehicle: saline with Tween-80) was 113 % of control, the T/C (dose: 100.0 mg/kg/injection, schedule: Q01DX009 (ip), vehicle: saline with Tween-80) was 104 % of control and the T/C (dose: 200.0 mg/kg/injection, schedule: Q01DX009 (ip), vehicle: saline with Tween-80) was 99 % of control.
For `N#C/C(=C\c1c(Cl)cccc1Cl)c1nc(-c2ccc(Cl)cc2)cs1`, the T/C (dose: 50.0 mg/kg/injection, schedule: Q01DX009 (ip), vehicle: saline) was 92 % of control, the T/C (dose: 100.0 mg/kg/injection, schedule: Q01DX009 (ip), vehicle: saline) was 92 % of control and the T/C (dose: 200.0 mg/kg/injection, schedule: Q01DX009 (ip), vehicle: saline) was 105 % of control.
For `CC1=CC2N(C=C1)C(c1cccc([N+](=O)[O-])c1)=NON2c1cc(C)ccn1` (stereo not drawn), the T/C [4] was 91 % of control, the T/C [5] was 87 % of control and 89 % of control and the T/C [6] was 87 % of control and 90 % of control.
With `Cc1ccc(S(=O)(=O)C2(NC(=O)c3ccc(Cl)cc3)CC2)cc1` the T/C (dose: 30.0 mg/kg/injection, schedule: Q01DX005 (ip), vehicle: Klucel (hydroxypropylcellulose) (HPC)) was 92 % of control and 94 % of control, the T/C [7] was 93 % of control and the T/C [8] was 86 % of control and 91 % of control and 92 % of control.
`N#CCN=C(N)NN` was tested, and the T/C [9] was 105 % of control, the T/C (dose: 200.0 mg/kg/injection, schedule: Q04DX003 (ip), vehicle: Klucel (hydroxypropylcellulose) (HPC)) was 94 % of control and the T/C (dose: 400.0 mg/kg/injection, schedule: Q04DX003 (ip), vehicle: Klucel (hydroxypropylcellulose) (HPC)) was 108 % of control.
In the case of `C1=C[N-]c2c3c(ccc2=C1)=CC=C[N-]3.O=S(=O)(O)O.[Zn+2]`, the T/C (dose: 3.12 mg/kg/injection, schedule: Q04DX002 (ip), vehicle: Klucel (hydroxypropylcellulose) (HPC)) is reported as 108 % of control, the T/C (dose: 6.25 mg/kg/injection, schedule: Q04DX002 (ip), vehicle: Klucel (hydroxypropylcellulose) (HPC)) is reported as 100 % of control and the T/C (dose: 12.5 mg/kg/injection, schedule: Q04DX002 (ip), vehicle: Klucel (hydroxypropylcellulose) (HPC)) is reported as 109 % of control. For the same molecule, the T/C (dose: 25.0 mg/kg/injection, schedule: Q04DX002 (ip), vehicle: Klucel (hydroxypropylcellulose) (HPC)) was 111 % of control.
In the case of `CCCCCCCCOP(=O)(N1CC1)N1CC1`, the T/C (dose: 22.0 mg/kg/injection, schedule: Q04DX003 (ip), vehicle: saline) is reported as 154 % of control, the T/C (dose: 33.0 mg/kg/injection, schedule: Q04DX003 (ip), vehicle: saline) is reported as 222 % of control and the T/C (dose: 50.0 mg/kg/injection, schedule: Q04DX003 (ip), vehicle: saline) is reported as 159 % of control. The T/C (dose: 75.0 mg/kg/injection, schedule: Q04DX003 (ip), vehicle: saline) was 118 % of control.
In the case of `COc1cc(NCCN(C(C)C)C(C)C)c2ncccc2c1`, the T/C (dose: 12.5 mg/kg/injection, schedule: Q01DX005 (ip), vehicle: saline) is reported as 101 % of control, the T/C [10] is reported as 93 % of control and the T/C [11] is reported as 90 % of control and 92 % of control.
`[Cl][Pt+2][Cl].[NH-]CC1(C[NH-])CCC1` was tested, and the T/C (dose: 0.38 mg/kg/injection, schedule: Q01DX009 (ip), vehicle: saline) was 114 % of control, the T/C (dose: 0.38 mg/kg/injection, schedule: Q01DX009 (ip), vehicle: suspension in saline) was 161 % of control and the T/C (dose: 0.75 mg/kg/injection, schedule: Q01DX009 (ip), vehicle: suspension in saline) was 215 % of control. The T/C (dose: 1.5 mg/kg/injection, schedule: Q01DX005 (ip), vehicle: saline) was 175 % of control, the T/C (dose: 1.5 mg/kg/injection, schedule: Q01DX005 (ip), vehicle: suspension in saline) was 161 % of control and the T/C (dose: 1.5 mg/kg/injection, schedule: Q01DX009 (ip), vehicle: saline) was 165 % of control. For the same molecule, the T/C (dose: 1.5 mg/kg/injection, schedule: Q01DX009 (ip), vehicle: suspension in saline) was 247 % of control, the T/C (dose: 3.0 mg/kg/injection, schedule: Q01DX005 (ip), vehicle: saline) was 202 % of control and the T/C (dose: 3.0 mg/kg/injection, schedule: Q01DX005 (ip), vehicle: suspension in saline) was 191 % of control. For the same molecule, the T/C (dose: 3.0 mg/kg/injection, schedule: Q01DX009 (ip), vehicle: saline) was 243 % of control, the T/C (dose: 3.0 mg/kg/injection, schedule: Q01DX009 (ip), vehicle: suspension in saline) was 159 % of control and the T/C (dose: 6.0 mg/kg/injection, schedule: Q01DX005 (ip), vehicle: saline) was 112 % of control. For the same molecule, the T/C (dose: 6.0 mg/kg/injection, schedule: Q01DX005 (ip), vehicle: suspension in saline) was 198 % of control, the T/C (dose: 6.0 mg/kg/injection, schedule: Q01DX009 (ip), vehicle: saline) was 215 % of control and the T/C (dose: 6.0 mg/kg/injection, schedule: Q01DX009 (ip), vehicle: suspension in saline) was 119 % of control.
With `CCC1=NO[C@@H](C(=O)OCc2ccccc2)[C@H]1C` the T/C [1] was 113 % of control, the T/C [2] was 103 % of control and the T/C [3] was 95 % of control.
For `Cc1ccc(NP(=S)(Nc2ccc(C)cc2C)Nc2ccc(C)cc2C)c(C)c1`, the T/C [7] was 97 % of control, the T/C [8] was 100 % of control and the T/C [12] was 100 % of control.
With `CCN1/C(=C/C2=C([O-])C(=C\c3ccc4ccccc4[n+]3CC)/C2=O)C=Cc2ccccc21` the T/C [7] was 101 % of control, the T/C [8] was 97 % of control and the T/C [12] was 86 % of control.
With `O=S(=O)(C1=C[C@H](O)C[C@@H]1O)c1ccccc1` the T/C [7] was 98 % of control, the T/C [8] was 107 % of control and the T/C [12] was 100 % of control.
In the case of `CN(C)CC(O)C(=O)O` (stereo not drawn), the T/C [10] is reported as 96 % of control, the T/C [11] is reported as 98 % of control and the T/C (dose: 100.0 mg/kg/injection, schedule: Q01DX005 (ip), vehicle: saline) is reported as 95 % of control. The T/C (dose: 200.0 mg/kg/injection, schedule: Q01DX005 (ip), vehicle: saline) was 96 % of control.
`C/C(=N\N=C(/[Se])N1CCCCC1C)c1ccccn1` (stereo not drawn) was tested, and the T/C (dose: 12.5 mg/kg/injection, schedule: Q04DX003 (ip), vehicle: Klucel (hydroxypropylcellulose) (HPC)) was 101 % of control and the T/C (dose: 25.0 mg/kg/injection, schedule: Q04DX003 (ip), vehicle: Klucel (hydroxypropylcellulose) (HPC)) was 114 % of control.
In the case of `CN1CCc2cc3c(cc2C1O)OCO3` (stereo not drawn), the T/C [4] is reported as 100 % of control and the T/C [5] is reported as 110 % of control.
In the case of `OCCCCCOCCOCCOCCOCCOCCCCCO`, the T/C [4] is reported as 101 % of control, the T/C [5] is reported as 101 % of control and the T/C [6] is reported as 96 % of control.
In the case of `COc1cccc2c1C(=O)c1c(O)c3c(c(O)c1C2=O)C[C@@](O)(/C(C)=N\O)C[C@@H]3OC1CC(N)C(O)C(C)O1` (stereo partly drawn), the T/C (dose: 3.13 mg/kg/injection, schedule: Q01DX009 (ip), vehicle: water) is reported as 154 % of control, the T/C (dose: 6.25 mg/kg/injection, schedule: Q01DX009 (ip), vehicle: water) is reported as 165 % of control and the T/C (dose: 6.25 mg/kg/injection, schedule: Q04DX003 (ip), vehicle: water) is reported as 115 % of control and 124 % of control. For the same molecule, the T/C (dose: 12.5 mg/kg/injection, schedule: Q01DX009 (ip), vehicle: water) was 183 % of control, the T/C (dose: 12.5 mg/kg/injection, schedule: Q04DX003 (ip), vehicle: water) was 116 % of control and 117 % of control and the T/C (dose: 25.0 mg/kg/injection, schedule: Q01DX009 (ip), vehicle: water) was 100 % of control. The T/C (dose: 25.0 mg/kg/injection, schedule: Q04DX003 (ip), vehicle: water) was 123 % of control, the T/C (dose: 100.0 mg/kg/injection, schedule: Q04DX003 (ip), vehicle: water) was 119 % of control and the T/C (dose: 200.0 mg/kg/injection, schedule: Q04DX003 (ip), vehicle: water) was 101 % of control.
`CCCN=Cc1cc(Cc2ccc(O)c(C=NCCC)c2)ccc1O` was tested, and the T/C (dose: 50.0 mg/kg/injection, schedule: Q04DX003 (ip), vehicle: Klucel (hydroxypropylcellulose) (HPC)) was 123 % of control and the T/C [9] was 104 % of control and 119 % of control.
